Laboratory results from US8518882B2, “Methods and compositions for ameliorating or inhibiting decline in memory or intelligence or improving same” (priority 1998, dated 2013).

Tests used:
[1] = Conversion of uridine to cytidine in plasma and brain of gerbils; assay type: in vivo; conditions: 250 mg/kg uridine orally, 60 min
PC12 cells [2] = assay: Intracellular CDP-choline levels in PC12 cells; assay type: cell-based; conditions: after 50 minutes
Procedure: (§1) Brain tissue or cells was dissolved in methanol/chloroform (1:2 vol/vol), centrifuged, and the aqueous phase was dried under vacuum, resuspended in 100-200 μL water and separated by HPLC on an ion-exchange column (Alltech Hypersil APS-2, 5 μM, 250×4.6 mm). CDP-choline was eluted with a linear gradient of NaH2PO4 buffers A (1.75 mM NaH2PO4, pH 2.9) and B (500 mM, pH 4.5), which allowed resolution of CDP-choline from closely co-eluting substances such as UMP over 40 min. The retention time for CDP-choline was 9.5 min. Individual nucleotide peaks were detected by UV absorption at […], and were identified by comparison with the positions of authentic standards, as well as by the addition of nucleotide standards to selected samples.
(§2) PC12 cells were maintained in Minimal Essential Medium (MEM; Invitrogen, Carlsbad, Calif.) supplemented with 10% fetal bovine serum (FBS) at 37° C. Experimental incubations were for 2 or 4 days in medium containing 50 ng/ml mouse 2.5 S (2.5 subunit) NGF and 1% FBS, with or without test compounds. NGF and FBS were obtained from Invitrogen.

PC12 cells [3] = assay: NGF-induced neurite outgrowth, branching and length in PC12 cells; assay type: cell-based
Procedure: as §2
PC12 cells were sparsely plated on collagen-coated 60 mm culture dishes in MEM containing 1% fetal bovine serum. […] All treatments were performed 24 h after plating. At the end of the treatment period, images were obtained with a phase-contrast Zeiss Axioplan 2 microscope, using OpenLab software. Six digital images were captured for each dish, for a total of 18 to 24 images per treatment group Approximately 300 cells were quantified for each treatment group for each experiment. Experiments were performed in triplicate. Quantification of neurites, including neurite branching and neurite length, was performed by one more researchers blinded to experimental groups Neurite length was measured using the public domain NIH software “Image J.” Processes longer than the diameter of the cell body were counted as neurites. Only process-bearing cells were analyzed.

NF-70 = NF-70 levels in PC12 cells (Western blotting); assay type: cell-based
Procedure: as §2
(§3) Equal amounts of protein (40 μg protein/lane) were loaded for sodium dodecyl sulfate-polyacrylamide gel electrophoresis (4-15% SDS PAGE; Bio-Rad, Hercules, Calif.). Prior to gel electrophoresis, bromphenol blue solution (0.07%) was added to each sample. Proteins were separated, transferred onto polyvinylidene difluoride (PVDF) membranes (Immobilon-P, Millipore), and blocked with 5% bovine serum albumin (Tris-buffered saline/0.15% Tween 20) for 1 h. After 3 10 min rinses in Tris-buffered saline (TBST), blots were incubated in TBST with various antibodies against the proteins of interest, including NF-70, NF-M (1: 2000, 1: 5000, respectively; Calbiochem, La Jolla, Calif.) at 4° C. overnight on an orbital shaker. […] Films were digitized using a Supervista S-12 scanner with a transparency adapter (UMAX Technologies, Freemont, Calif.). Analysis was performed using the public domain NIH Image program (NIH V.1.61).

NF-M = NF-M levels in PC12 cells (Western blotting); assay type: cell-based
Procedure: as §2, §3

PC12 cells [4] = assay: Intracellular UTP and CTP levels in PC12 cells by HPLC; assay type: cell-based; conditions: 2 days with NGF; uridine 50 μM, UTP 100 μM, cytidine 50 μM
Procedure: as §1
Levels of intracellular UTP and CTP were analyzed by HPLC as described for Example 5, except that 5 mM NaH2PO4, pH 2.65 was used as buffer A.

[5] = system: P2Y2, P2Y4 and P2Y6 receptors; assay: P2Y receptor expression in NGF-differentiated PC12 cells; assay type: cell-based; conditions: compared with cells exposed to NGF alone
Procedure: Western blots utilized rabbit anti-P2Y2, anti-P2Y4 (both from Calbiochem); or rabbit anti-P2Y6 (Novus Biologicals, Littleton, Colo.).
PC 12 cells were treated as described above, except they were grown on 12 mm glass cover slips (A Daigger & Co., Vernon Hills, Ill.) coated with collagen. Proteins were visualized using immunofluorescence. Briefly, the cells were fixed with 4% paraformaldehyde, permeabilized with 0.25% Triton X-100, blocked in 10% normal goat serum, and incubated overnight in the appropriate antibodies (mouse anti-NF-70, and either rabbit anti-P2Y2, rabbit anti-P2Y4 or rabbit anti-P2Y6). For P2Y2 and P2Y4 visualization, control cultures were incubated with primary antibody plus a control antigen in order to ensure that the immuno-staining would be specific. Control antigen was not available for the P2Y6 receptor. Cells were then incubated in fluorochrome-conjugated secondary antibodies for 1 hour (goat anti-rabbit ALEXA 488 and goat anti-mouse ALEXA 568; Molecular Probes, Eugene, Oreg.) and mounted on glass slides with mounting media with or without DAPI (Vector Laboratories, Burlingame, Calif.). Control antigens provided with the primary antibodies were used to ensure that immuno-staining was specific. Digital images were obtained on a Zeiss (Oberkochen, Germany) Axioplan microscope with OpenLab software, using a Zeiss Plan-Neofluor 40× oil-immersion objective.

IP signaling = assay: PI turnover / inositol phosphate formation in NGF-differentiated PC12 cells; assay type: cell-based; conditions: for Formation of IP: NGF-differentiated PC12 cells, 1 hour, UTP 100 μM (p<0.05), uridine 50 μM (p<0.01)
Procedure: Analysis of PI turnover was performed as described by (Nitsch R M et al, J Neurochem 69: 704-12, 1997). Briefly, cells were labeled metabolically for 36 h with 1.25 microCurie (μCi)/dish of myo-[2-^3H]inositol (17.0 Curie/mmol; Amersham Biosciences) in serum-free MEM, washed twice with Hank's balanced salt solution (HBSS), and treated for 15 min with 10 mM lithium chloride in HBSS. Drugs were added in the presence of 10 mM lithium for 60 min at 37° C. Cells were lysed with ice-cold methanol, and lipids were removed by extraction with chloroform/methanol/water (2:2:1 by volume). Labeled water-soluble inositol phosphates were separated from free [^3H]inositol by ion-exchange chromatography, using AG 1-X8 columns (Bio-Rad), and 1M ammonium formate and 0.1M formic acid as eluent. Radioactivity was quantified by liquid scintillation spectrometry.

PC12 cells [6] = assay: Uptake of uridine into PC12 cells; assay type: cell-based

Compound: O=c1ccn([C@@H]2O[C@H](CO)[C@@H](O)[C@H]2O)c(=O)[nH]1 [uridine]
- Conversion to cytidine in brain versus plasma [1]: more efficiently converted to cytidine than in plasma
- Intracellular CDP-choline levels (PC12 cells [2]): statistically significant increase
- Average neurite length (PC12 cells [3]; NGF-differentiated cells): did not significantly affect
- Production of neurites (PC12 cells [3]; absence of NGF, 50 μM, 2 or 4 days): did not result in the production of neurites
- Number of neurite branch points per cell (PC12 cells [3]; with NGF, 50 μM, 4 days): significantly (p<0.01) increased
- Number of neurites per cell (PC12 cells [3]; with NGF, 2-day treatment or lower concentrations (10, 25 μM)): had no effect
- NF-70 expression (NF-70; NGF plus 50 μM, 4 days, vs NGF only, p<0.01): increased
- NF-70 level (NF-70; absence of NGF): had no effect
- NF-M expression (NF-M; NGF plus 50 μM, 4 days, vs NGF only, p<0.001): increased
- NF-M level (NF-M; absence of NGF): had no effect
- Intracellular CTP levels (PC12 cells [4]): significantly (p<0.05) increased
- Intracellular UTP levels (PC12 cells [4]): significantly (p<0.05) increased
- Expression of P2Y2, P2Y4 and P2Y6 receptors [5]: did not affect the expression
- Formation of IP (IP signaling): significantly increased

Compound: Nc1c(S(=O)(=O)O)cc(Nc2ccc(Nc3nc(Cl)nc(Nc4cccc(S(=O)(=O)O)c4)n3)c(S(=O)(=O)O)c2)c2c1C(=O)c1ccccc1C2=O [RB-2, reactive blue 2]
- Inhibition of uptake of uridine into PC12 cells (PC12 cells [6]): None of the P2Y receptor antagonists inhibited the uptake of uridine

Compound: Cc1nc(N=Nc2ccc(S(=O)(=O)O)cc2S(=O)(=O)O)c(COP(=O)(O)O)c(C=O)c1O [PPADS, pyridoxal-phosphate-6-azophenyl-2′,4′ disulfonic acid, reference compound]
- Inhibition of uptake of uridine into PC12 cells (PC12 cells [6]): None of the P2Y receptor antagonists inhibited the uptake of uridine
- Block of stimulation of IP signaling by UTP (IP signaling; PPADS 100 μM): significantly (p<0.05) blocked

Compound: O=c1ccn([C@@H]2O[C@H](COP(=O)(O)OP(=O)(O)OP(=O)(O)O)[C@@H](O)[C@H]2O)c(=O)[nH]1 [UTP, uridine-5′-triphosphate]
- Neurite outgrowth (PC12 cells [3]; with NGF, 10 and 50 μM, 4 days, vs NGF only): significantly (p<0.01) enhanced
- Intracellular CTP levels (PC12 cells [4]): did not significantly affect
- Intracellular UTP levels (PC12 cells [4]): did not significantly affect
- Formation of IP (IP signaling): significantly increased

Compound: Nc1ccn([C@@H]2O[C@H](CO)[C@@H](O)[C@H]2O)c(=O)n1 [cytidine, reference compound]
- Neurite outgrowth (PC12 cells [3]; NGF-exposed cells, cytidine): had no effect on neurite outgrowth
- Intracellular CTP levels (PC12 cells [4]): did not significantly affect
- Intracellular UTP levels (PC12 cells [4]): did not significantly affect

Compound: Cc1ccc(C(=O)Nc2ccc(S(=O)(=O)O)c3cc(S(=O)(=O)O)cc(S(=O)(=O)O)c23)cc1NC(=O)c1cccc(NC(=O)Nc2cccc(C(=O)Nc3cc(C(=O)Nc4ccc(S(=O)(=O)O)c5cc(S(=O)(=O)O)cc(S(=O)(=O)O)c45)ccc3C)c2)c1 [suramin]
- Inhibition of uptake of uridine into PC12 cells (PC12 cells [6]): None of the P2Y receptor antagonists inhibited the uptake of uridine
